The values that follow are results of earlier work, collected in patent US20070148240A1, “Oral formulation containing itraconazole and methods for manufacturing and using the same” (priority 2005, published 2007).

Test in data set [1]: not given
This is another data set of the same source.

In the case of `CCC(C)n1ncn(-c2ccc(N3CCN(c4ccc(OC[C@H]5CO[C@](Cn6cncn6)(c6ccc(Cl)cc6Cl)O5)cc4)CC3)cc2)c1=O` (mixture of isomers) [itraconazole, (±)-cis-4-[4-[4-[4-[[2-(2,4-dichlorophenyl)-2-(1H-1,2,4-triazol-1-ylmethyl)-1,3-dioxolan-4-yl]methoxy]phenyl]-1-piperazinyl]phenyl]-2,4-dihydro-2-(1-methylpropyl)-3H-1,2,4-triazol-3-one], the solubility in acids result (in acids such as hydrochloric acid, acetic acid, phosphoric acid and methylsulfonic acid) is listed as “easily soluble”. Moreover, the solubility in ethanol entry (in ethanol) was “low”. The “solubility in methylene chloride” value (in methylene chloride) is “easily soluble”. Moreover, the solubility in water entry (in water) is “less than 1 μg/ml”. Further, in the data set on plasma proteins, the “binding rate with plasma proteins” value is listed as 99.8%. Moreover, the “time to reach peak concentration in plasma” value in data set [1] (after being taken by patients) was 3 to 4 h. Besides, in data set [1] (human, in vivo), the “concentration in blood relative to that in plasma” value is “about 60%”, the “itraconazole in original form excreted in feces” value was 3-18%, the “itraconazole in original form secreted in urine” value is listed as ≤ 0.03% and the plasma half life is 24 to 36 h. Moreover, the “itraconazole metabolites secreted in urine” value in data set [1] (within a week after uptake of the drug) is listed as “About 35%”.
Turning to hydroxy-itraconazole, in the data set on fungi, the “antifungal activity in vitro” value is “has been demonstrated in vitro to have antifungal activity”.
